According to ChEMBL document CHEMBL4513101, “Naegleria gruberi Pathogen Box compounds screening” (2021):
Activity calls are given as the source filed them. Rule as the data show it: active = inhibition of 80% or more and inactive = less.

The compounds below were run on Naegleria gruberi (assay: microbe, parasite or virus in culture). Conditions: NEG-M, CONC 10 uM.
Type: functional
Description: Growth inhibiting activity of Naegleria gruberi in vitro

| SMILES | inhibition at 10 µM |
| --- | --- |
| NCCC(O)C(=O)N[C@@H]1C[C@H](N)[C@@H](OC2O[C@H](CN)[C@@H](O)[C@H](O)[C@H]2O)[C@H](O)C1OC1O[C@H](CO)[C@@H](O)[C@H](N)[C@H]1O (some centres undefined) | 0% (not active) |
| COC(=O)c1ccc(F)cc1NS(=O)(=O)c1cccc(-c2cnn(Cc3ccccc3)c2)c1 | 26.2% (not active) |
| COc1ccc(-c2cnc3ccc(N4CCCC4)nn23)cc1OC | 51.2% (not active) |
| O=C(Nc1ccc(N2CCNCC2)nc1)c1oc(-c2ccccc2)nc1C(F)(F)F | 15.4% (not active) |
| O=C(CN1CCOCC1)Nc1ccc2ncnc(Nc3ccc(OCc4cccc(F)c4)c(Cl)c3)c2c1 | 17% (not active) |
| Nc1ncnc2c1c(-c1cnc3ccccc3c1)nn2CC1CCNCC1 | 4.9% (not active) |
| CO[C@H]1/C=C\O[C@@]2(C)Oc3c(C)c(O)c4c(O)c(/c(=C/NN5CCN(C)CC5)c(O)c4c3C2=O)=N\C(=O)/C(C)=C\C=C/[C@H](C)[C@H](O)[C@@H](C)[C@@H](O)[C@@H](C)[C@H](OC(C)=O)[C@@H]1C | 0% (not active) |
| CC(C)C(Oc1cccc2ccccc12)C(=O)O (centres undefined) | 1.3% (not active) |
| CC(C)C(NC(=O)Cc1cccc2ccccc12)C(=O)Nc1cccc(C#N)c1 (centres undefined) | 37.5% (not active) |
| O=C(NCc1ccco1)N1CCN(Cc2ccc(Cl)s2)CC1 | 39.6% (not active) |
| Nc1ncnc2c1ncn2C[C@@H](O)[C@@H](O)C(=O)O [ERITADENINE] | 36.3% (not active) |
| N#Cc1nc(-c2ccccc2F)oc1NCCc1ccccc1 | 4.7% (not active) |
| CC[C@H](CO)NCCN[C@H](CC)CO | 26.7% (not active) |
| Cc1cc(NC(=O)c2ccc(S(=O)(=O)N(Cc3ccccc3)C(C)C)cc2)no1 | 0% (not active) |
| O=C(Nc1nnc(S)s1)c1cc(Br)ccc1Cl | 11.5% (not active) |
| O=C(NC1CCN(c2ccnc3ccccc23)C1)c1cccc(C(F)(F)F)c1 (centres undefined) | 6.7% (not active) |
| CCc1ccccc1-n1c(C)cn2c3c(=O)n(C(C(=O)OC)C(C)C)c(=O)n(C)c3nc12 (centres undefined) | 4.4% (not active) |
| CCN(CC)C(=O)N1CCN(C)CC1 [DIETHYLCARBAMAZINE] | 19% (not active) |
| CC1=Nc2ccc(Cl)cc2C(O)(c2ccc(C)cc2)N1CCN1CCCCC1 (centres undefined) | 31.1% (not active) |
| CCOc1ccc(-c2nc(CNCCc3ccc(F)cc3)cs2)cc1 | 42.4% (not active) |
| CO[C@@H](C(=O)N1Cc2[nH]nc(NC(=O)c3ccc(N4CCN(C)CC4)cc3)c2C1)c1ccccc1 [DANUSERTIB] | 41.3% (not active) |

| SMILES | inhibition at 10 µM |
| --- | --- |
| COc1ccc(C2CC(c3cccs3)=NN2C(=O)c2ccco2)cc1OC (centres undefined) | 34.6% (not active) |
| C[C@@H]1[C@H](O)[C@@H](C)/C=C/C=C/C=C/C=C/C=C/C=C/C=C/[C@H](O[C@@H]2O[C@H](C)[C@@H](O)[C@H](N)[C@@H]2O)C[C@@H]2O[C@](O)(C[C@@H](O)C[C@@H](O)[C@H](O)CC[C@@H](O)C[C@@H](O)CC(=O)O[C@H]1C)C[C@H](O)[C@H]2C(=O)O [AMPHOTERICIN B] | 2.4% (not active) |
| O=C([C@@H](c1ccc(Cl)cc1)c1cccnc1)N1CCN(c2ccc(C(F)(F)F)cc2)CC1 | 75.6% (not active) |
| CC(=O)N1CCc2cc3nc(C)cc(C)c3cc21 | 19.9% (not active) |
| COc1ccc(-c2cc(NC(=O)c3ccc(F)cc3Cl)ccc2OC)cc1 | 38.4% (not active) |
| CCN(CC)CCCN1CCN(C(=O)c2cccc(-c3noc(C(F)(F)F)n3)c2)CC1 | 13% (not active) |
| COc1ccc(C2=NN(C3CCCCCC3)C(=O)[C@@H]3CC=CC[C@H]23)cc1OCCCCOc1ccc(-c2nnn[nH]2)cc1 | 30.2% (not active) |
| COC(=O)c1cccc2oc(-c3cccc(OC)c3NC(=O)c3cc(-c4ccccc4)on3)nc12 | 69.8% (not active) |
| COc1cc(-c2cc(-c3ccc(S(C)(=O)=O)cc3)cnc2N)ccc1O | 67.8% (not active) |
| CC(C)(C)C(O)C(Oc1ccc(-c2ccccc2)cc1)n1cncn1 (centres undefined) [BITERTANOL] | 81% (active) |
| O=C(CCC1CCCCC1)Nc1cccc(-c2nnc(-c3ccco3)o2)c1 | 30% (not active) |
| O=C(C(Cc1c[nH]c2ccccc12)NS(=O)(=O)c1ccc(Cl)cc1)N1CCCCC1 (centres undefined) | 23.3% (not active) |
| CCOC(=O)NC(=O)c1ccsc1NC(=O)c1nc2ccccc2s1 | 89.3% (active) |
| Cc1cccc(C(=O)Nc2ccnc(N(C)C3CCN(CC(C)C)CC3)c2)c1 | 35.1% (not active) |
| O=C1N(Cc2cc3ccccc3s2)CC2CN(Cc3ccccc3)CCN12 (centres undefined) | 34.3% (not active) |
| Nc1cccnc1Nc1ccc(Cl)cc1 | 4.1% (not active) |
| Cc1cc(OCC(=O)Nc2ccc(C(C)C)cc2)n(C)c(=O)c1C#N | 18.6% (not active) |
| Cc1ccc2nc(Cl)c(CNCc3cccs3)cc2c1 | 35.5% (not active) |
| CC1COC2(CCN(c3nc(=O)c4cc(C(F)(F)F)cc([N+](=O)[O-])c4s3)CC2)O1 (centres undefined) | 38.4% (not active) |
| O=C(NCc1ccoc1)N1CCN(Cc2ccc3c(c2)OCO3)CC1 | 28.7% (not active) |
| Cc1cc(C)n2nc(C(=O)Nc3cc(C(F)(F)F)ccc3N3CCOCC3)nc2n1 | 38% (not active) |

| SMILES | inhibition at 10 µM |
| --- | --- |
| CCc1ccc(C(NCc2nc(N)nc(N(C)C)n2)C(C)C)cc1 (centres undefined) | 18.9% (not active) |
| Cc1cccc(-c2nc(Nc3ccncn3)c3sccc3n2)n1 | 34% (not active) |
| CCCNC(=O)N1CCC2(CC1)CC(=O)c1cc(C)ccc1O2 | 11.6% (not active) |
| Cc1cc(Nc2ccc(C(F)(F)F)cc2)n2ccnc2n1 | 0% (not active) |
| CC(C)=CCC/C(C)=C\CNCCNC1C2CC3CC(C2)CC1C3 (centres undefined) | 20.2% (not active) |
| Cc1ccc(NC(=O)c2nc[nH]c2C(=O)Nc2nc3ccccc3[nH]2)c(C)c1 | 22.8% (not active) |
| COc1cccc(OC)c1C(=O)Nc1ccc(Cl)c(-c2nc3ccccc3s2)c1 | 19.2% (not active) |
| COc1ccc(N(CCc2cccc(C)n2)C(C)=O)cc1 | 19.6% (not active) |
| CC(=O)Nc1ccc(NC(=O)c2cc(-c3cc(Cl)ccc3O)n[nH]2)cc1 | 8.8% (not active) |
| Nc1ncnc2c1ncn2[C@@H]1O[C@H](COS(=O)(=O)NC(=O)c2ccccc2O)[C@@H](O)[C@H]1O | 14.5% (not active) |
| CC(=O)NC[C@@H]1CN(c2ccc(N3CCOCC3)c(F)c2)C(=O)O1 | 20.1% (not active) |
| COc1cc(NC(=O)Cc2nn(C)c(=O)c3ccccc23)ccc1Cl | 90.7% (active) |
| COc1cccc(NC(=O)c2c(NC(=O)c3cccnc3)sc3c2CCC3)c1 | 62.6% (not active) |
| CCc1nc2ccc(Cl)cn2c1C(=O)NCc1ccc(N2CCC(c3ccc(OC(F)(F)F)cc3)CC2)cc1 [TELACEBEC] | 42.4% (not active) |
| Cc1nn2c(=O)c3c([nH]c2c1-c1ccc(Cl)cc1)CCCC3 | 30.5% (not active) |
| COc1ccccc1CNC(=O)c1cc(C2CC2)nc2c1cnn2C(C)C | 49.8% (not active) |
| Cc1cc(C(=O)Nc2cnn(Cc3ccc(Cl)cc3Cl)c2)no1 | 65% (not active) |
| CN1CCCC1CCO[C@](C)(c1ccccc1)c1ccc(Cl)cc1 (some centres undefined) | 64.4% (not active) |
| CCNC(=O)C(C)Nc1nc(-c2cccnc2)nc2sc(C)c(C)c12 (centres undefined) | 12.2% (not active) |
| Cc1ccc2cc(C3NC(=O)c4ccccc4N3)c(Cl)nc2c1 (centres undefined) | 46.1% (not active) |
| COc1ccc(CN2CCOc3ccc(C(C)(O)CN(C)C)cc3C2)cc1C (centres undefined) | 26.3% (not active) |

| SMILES | inhibition at 10 µM |
| --- | --- |
| CCCCN(CCCC)c1c(C#N)cc(S(=O)(=O)Nc2ccccc2)cc1C#N | 23.9% (not active) |
| COc1cccc2c(C)nc(N=C(N)N)nc12 | 24.2% (not active) |
| COc1ccc(-c2onc(C(F)(F)F)c2-c2ccc(Cl)cc2)c(O)c1 | 45.5% (not active) |
| CC(C)(CN)c1nc(-c2ccc(Cl)c(O)c2)c(-c2ccnc(N)n2)[nH]1 | 6.4% (not active) |
| O=C(NC1CC1)c1ccc(CSCc2ccccc2Cl)o1 | 5.6% (not active) |
| C[C@H]1c2cccc(O)c2C(=O)C2=C(O)[C@]3(O)C(=O)C(C(N)=O)=C(O)[C@@H](N(C)C)[C@@H]3[C@@H](O)[C@@H]21 [DOXYCYCLINE] | 59.8% (not active) |
| CN1CCN(CCCOc2ncc(Nc3ncc(-c4ccc(C(F)(F)F)c(F)c4)nc3C(N)=O)cn2)CC1 | 12.9% (not active) |
| CCOc1ccccc1NC(C)C(=O)Nc1cc(C(F)(F)F)ccc1N1CCOCC1 (centres undefined) | 20.8% (not active) |
| Nc1nccc2ccc(Oc3ccncc3)cc12 | 3% (not active) |
| O=C(Nc1nc(-c2ccccn2)cs1)c1cncn1-c1ccccc1 | 45.9% (not active) |
| N=C(N)Nc1ccc(-c2ccc(-c3ccc(NC(=N)N)cc3Cl)o2)c(Cl)c1 | 24% (not active) |
| CNCCC(Oc1ccc(C(F)(F)F)cc1)c1ccccc1 (centres undefined) [FLUOXETINE] | 7.5% (not active) |
| COc1cc(OC)cc(C(=O)NCC2Cc3cc(Cl)cc(-c4ccncc4)c3O2)c1 (centres undefined) | 20.9% (not active) |
| Cc1ccc(S(=O)(=O)N2CCN(C(=O)c3cc(-c4ccccc4)n[nH]3)CC2)cc1 | 22.3% (not active) |
| CCCCc1ccc(NC(=O)Nc2ccc(O[C@H]3CCCC[C@@H]3N(C)c3ccccc3)c(F)c2)cc1 | 41.1% (not active) |
| CN1CCC(c2cc(-c3ccncc3)c(-c3ccc(F)cc3)[nH]2)CC1 | 0% (not active) |
| Cc1ccc(S(=O)(=O)n2cc(-c3ccnc(N)c3)c3cc(Br)cnc32)cc1 | 53.9% (not active) |
| Cc1ccc(NC(=O)c2cc(S(=O)(=O)NC(C)(C)C)ccc2C)nc1 | 34.7% (not active) |
| CS(=O)(=O)Cc1nc2ccccc2oc1=O | 38.8% (not active) |
| COc1ccc(Oc2ccc([C@@H](C)N(C)c3ncc4c(N)nc(N)nc4n3)cc2)cc1 | 25.6% (not active) |
| CCCn1c(NC(=O)c2ccc3ccccc3n2)nc2ccccc21 | 22.6% (not active) |
